Source: PubChem BioAssay AID385 (SGCOxCompounds, 2006)

Each compound was assayed against Casein kinase I isoform gamma-3 (Homo sapiens) (UniProt Q9Y6M4) (assay: CSNK1G3 binders by thermal stabilization, biophysical, DSF, SYPRO orange, recombinant protein (AID 385)). Conditions: at 10 µM, protein 2 µM, buffer 10 mM HEPES, pH 7.5, NaCl 150 mM, stronger effect = higher value.
Chain of Casein kinase I isoform gamma-3 (Homo sapiens) (Q9Y6M4 whole entry, looked up, canonical isoform): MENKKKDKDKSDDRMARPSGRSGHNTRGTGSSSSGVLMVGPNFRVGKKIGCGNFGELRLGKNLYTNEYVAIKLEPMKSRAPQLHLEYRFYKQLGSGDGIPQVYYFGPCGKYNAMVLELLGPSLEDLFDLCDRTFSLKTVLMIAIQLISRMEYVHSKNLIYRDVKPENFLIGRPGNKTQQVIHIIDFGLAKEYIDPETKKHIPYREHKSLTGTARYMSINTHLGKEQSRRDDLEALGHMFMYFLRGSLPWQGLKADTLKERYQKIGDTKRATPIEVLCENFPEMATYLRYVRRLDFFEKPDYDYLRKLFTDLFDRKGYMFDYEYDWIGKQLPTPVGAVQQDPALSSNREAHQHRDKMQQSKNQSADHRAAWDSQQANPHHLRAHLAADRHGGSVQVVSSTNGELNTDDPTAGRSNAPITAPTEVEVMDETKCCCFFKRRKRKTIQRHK

| SMILES | Tm shift |
| --- | --- |
| Nc1nc(Nc2ccccc2)sc1C(=O)c1ccc(F)cc1 | 3.3 C |
| CSc1nc(-c2ccnc(NC(C)c3ccccc3)c2)c(-c2ccc(F)cc2)[nH]1 (stereo unspecified) | 3.5 C |
| Nc1nc(Nc2ccc(S(N)(=O)=O)cc2)nn1C(=S)Nc1c(F)cccc1F | 5.4 C |
| CC(C)n1cnc2c(Nc3cccc(Cl)c3)nc(NCCO)nc21 | 7 C |
| CCn1cnc2c(Nc3cccc(Cl)c3)nc(N[C@@H]3CCCC[C@@H]3N)nc21 | 5.5 C |
| COc1ccc(Nc2nc(N)c(C(=O)c3ccc(Cl)cc3)s2)cc1 | 3.1 C |
| Nc1nc(Nc2ccccc2F)sc1C(=O)c1ccc(Br)cc1 | 3.4 C |
| O=Nc1c(-c2c(O)[nH]c3ccc(S(O)(O)O)cc23)[nH]c2ccccc12 | 3.8 C |
| NC1=N/C(=C2/CCNC(=O)c3[nH]c(Br)cc32)C(=O)N1 | 3.5 C |
| Nc1nc(Nc2ccc(F)cc2)sc1C(=O)c1ccccc1 | 3.5 C |
| Nc1nc(Nc2cccc(Cl)c2)sc1C(=O)c1ccc(F)cc1 | 4.8 C |
| N#C/C(=C1\Nc2ccccc2S1)c1ccnc(NCCc2cccnc2)n1 | 3.5 C |
| NC(=O)c1ccc(-c2nc(-c3ccc4c(c3)OCCO4)c(-c3ccccn3)[nH]2)cc1 | 6.7 C |
| CCN(CC)CCNC(=O)c1c(C)[nH]c(/C=C2\C(=O)Nc3ccc(Cl)cc32)c1C | 4 C |
| COc1ccc(Nc2nc(N)c(C(=O)c3ccc(OC)cc3)s2)cc1 | 4.9 C |
| O=c1[nH]c(O)c2c1c1c3ccccc3nc1n1cncc21 | 3.5 C |
